From patent US10945971B2, “Sphingosine kinase type 1 inhibitors and uses thereof” (Enzo Therapeutics, Inc., priority 2008, dated 2021)

What was measured:
Format in all cases: cell-based, human
[1] = test system: U87 cells; assay: Proliferation of U87 glioblastoma cells
Experimental: (§1) Cells were plated at 10,000 cells/well in 48-well plates and allowed to attach for 24 h. Cell proliferation was measured at the indicated times with WST-1 and absorbance was measured in a plate reader at 450 nm with background subtraction at 630 nm. Cell death was detected by trypan blue exclusion assays in which the percent of blue dye incorporating cells were determined using a light microscope and a hemacytometer as described (Yacoub et al. Mol Cancer Ther 7:314-329, 2008). Apoptotic cell death was measured by staining cell nuclei with the Hoechst dye bisbenzimide and apoptotic cells were identified by condensed, fragmented nuclear regions as described previously (Sankala et al. Cancer Res 67:10466-10474, 2007). A minimum of 300 cells was scored.

[2] = test system: JNK; assay: JNK pathway and p38 MAPK activation, LN229 cells
Experimental: (§2) Cells were scraped in buffer containing 20 mM Tris-HCl, pH 7.5, 50 mM NaCl, 50 mM NaF, 30 mM Na4P2O7, 20 mM 2-glycerophosphate, 1 mM Na3VO4, 5 mM EDTA, 2 mM EGTA, 0.5% SDS and protease inhibitor cocktail (1:200 dilution) and probe-sonicated. Equal amounts of protein determined with bicinchoninic acid (Pierce, Rockford, Ill.), were resolved by SDS-PAGE and transferred to nitrocellulose membranes. Blots were blocked with 5% non-fat dry milk in Tris-buffered saline containing 0.1% […] (TBST) for 1 h at room temperature, and then incubated with primary antibodies (1:3,000 in 1% BSA) overnight, followed by the appropriate HRP-conjugated secondary antibodies (1:40,000 in 1% BSA). Immunocomplexes were visualized by enhanced chemiluminescence (Pierce).

[3] = test system: ERK1/2; assay: Western blotting of ERK1/2 phosphorylation, LN229 cells; conditions: LN229, serum, LPA, EGF, short-term
Experimental: as §2

[4] = test system: U118 cells; assay: Proliferation of U118 glioblastoma cells
Experimental: as §1

CCCCCc1ccc(/C=C/[C@H](O)[C@@H](CO)NC)cc1 [SK1-I, (2R,3S,4E)-N-methyl-5-(4′-pentylphenyl)-2-aminopent-4-ene-1,3-diol]
proliferation [1]: suppress proliferation
activation of JNK ([2]; LN229): delayed activation of JNK
phosphorylation of c-Jun (Ser63/73) and ATF-2 (Thr71) ([2]; LN229, after addition of SK1-I): enhanced phosphorylation
p38 MAPK ([2]; LN229, data not shown): without affecting
stimulated ERK1/2 phosphorylation at Thr202/Tyr204 [3]: did not significantly affect
proliferation [4]: suppress proliferation
